Source: US20260365670A1, “EGFR INHIBITORS AND USES THEREOF” (DIZAL (JIANGSU) PHARMACEUTICAL CO., LTD., priority 2022, published 2026)
Like-named read-outs stand apart in the source and are kept apart here.

Legend:
EGFR (C797S L858R) = target: T1, EGFR (C797S L858R) (Homo sapiens, UniProt P00533, C797S/L858R); assay: Inhibition of EGFR (C797S L858R) biochemical enzymatic activity (HTRF); conditions: EGFR (C797S L858R), 1 mM ATP, 1 h at room temperature, read-out: IC50 @L858-C797S
T1 construct: purchased signalchem
T1 sequence (P00533 25-1210 C797S/L858R): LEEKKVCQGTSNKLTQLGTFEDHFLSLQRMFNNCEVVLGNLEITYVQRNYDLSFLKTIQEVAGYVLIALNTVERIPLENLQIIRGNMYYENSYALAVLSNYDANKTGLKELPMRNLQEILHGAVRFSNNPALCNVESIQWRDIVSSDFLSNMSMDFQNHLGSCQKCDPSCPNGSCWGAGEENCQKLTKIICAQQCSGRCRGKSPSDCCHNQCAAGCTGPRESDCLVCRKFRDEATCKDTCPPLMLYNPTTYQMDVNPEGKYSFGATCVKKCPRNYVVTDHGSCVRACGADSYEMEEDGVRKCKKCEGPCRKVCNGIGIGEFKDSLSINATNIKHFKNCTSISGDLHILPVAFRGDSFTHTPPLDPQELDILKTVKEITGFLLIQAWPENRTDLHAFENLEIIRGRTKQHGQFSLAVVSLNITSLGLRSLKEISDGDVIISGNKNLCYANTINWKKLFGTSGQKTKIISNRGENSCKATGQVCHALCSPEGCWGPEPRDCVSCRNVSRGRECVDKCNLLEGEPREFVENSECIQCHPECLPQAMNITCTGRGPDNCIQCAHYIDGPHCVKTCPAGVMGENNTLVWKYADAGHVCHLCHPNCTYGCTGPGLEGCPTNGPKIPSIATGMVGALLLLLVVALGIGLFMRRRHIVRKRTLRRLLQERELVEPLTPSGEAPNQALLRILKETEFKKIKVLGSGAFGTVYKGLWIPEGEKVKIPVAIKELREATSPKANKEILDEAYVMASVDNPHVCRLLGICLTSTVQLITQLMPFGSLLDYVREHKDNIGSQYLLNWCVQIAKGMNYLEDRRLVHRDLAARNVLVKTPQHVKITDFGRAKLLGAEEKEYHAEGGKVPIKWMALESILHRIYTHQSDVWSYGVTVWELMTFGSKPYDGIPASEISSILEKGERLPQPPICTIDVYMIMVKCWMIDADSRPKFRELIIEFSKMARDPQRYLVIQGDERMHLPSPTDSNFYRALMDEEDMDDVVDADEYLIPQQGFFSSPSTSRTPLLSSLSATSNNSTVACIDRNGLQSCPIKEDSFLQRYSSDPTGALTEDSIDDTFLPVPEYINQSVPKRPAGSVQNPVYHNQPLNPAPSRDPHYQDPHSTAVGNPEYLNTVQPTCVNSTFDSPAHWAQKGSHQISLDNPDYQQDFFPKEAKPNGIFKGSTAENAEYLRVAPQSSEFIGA
How it was run: (§1)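 Recombinant kinases phosphorylated 1 μM biotinylated TK substrate with 1 mM ATP in buffer with 5 mM MgCl2, 1 mM MnCl2, 0.01% CHAPS, 1 mM DTT, 0.5% DMSO. Reaction ran 1 h at room temperature, stopped with EDTA-containing detection mix. HTRF 665/615 nm ratio gave IC50 via four-parameter logistic fit.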

EGFR Exon19Del/T790M = target: T2, EGFR Exon19Del/T790M (Homo sapiens, UniProt P00533, DEL746-750/T790M); assay: Inhibition of EGFR Exon19Del/T790M biochemical enzymatic activity (HTRF); conditions: EGFR Exon19Del/T790M, 1 mM ATP, 1 h at room temperature, read-out: IC50 @Del19-T790M
T2 construct: purchased Carna Bio
How it was run: as §1

EGFR Exon19Del = target: T3, EGFR Exon19Del (Homo sapiens, UniProt P00533, DEL746-750); assay: Inhibition of EGFR Exon19Del biochemical enzymatic activity (HTRF); conditions: EGFR Exon19Del, 1 mM ATP, 1 h at room temperature, read-out: IC50 @Del19
T3 construct: purchased Carna Bio
How it was run: as §1

EGFR wild type = target: T4, EGFR wild type (Homo sapiens, UniProt P00533); assay: Inhibition of EGFR wild type biochemical enzymatic activity (HTRF); conditions: EGFR wild type, 1 mM ATP, 1 h at room temperature, read-out: IC50 @WT
T4 construct: purchased Carna Bio
T4 sequence (P00533 25-1210): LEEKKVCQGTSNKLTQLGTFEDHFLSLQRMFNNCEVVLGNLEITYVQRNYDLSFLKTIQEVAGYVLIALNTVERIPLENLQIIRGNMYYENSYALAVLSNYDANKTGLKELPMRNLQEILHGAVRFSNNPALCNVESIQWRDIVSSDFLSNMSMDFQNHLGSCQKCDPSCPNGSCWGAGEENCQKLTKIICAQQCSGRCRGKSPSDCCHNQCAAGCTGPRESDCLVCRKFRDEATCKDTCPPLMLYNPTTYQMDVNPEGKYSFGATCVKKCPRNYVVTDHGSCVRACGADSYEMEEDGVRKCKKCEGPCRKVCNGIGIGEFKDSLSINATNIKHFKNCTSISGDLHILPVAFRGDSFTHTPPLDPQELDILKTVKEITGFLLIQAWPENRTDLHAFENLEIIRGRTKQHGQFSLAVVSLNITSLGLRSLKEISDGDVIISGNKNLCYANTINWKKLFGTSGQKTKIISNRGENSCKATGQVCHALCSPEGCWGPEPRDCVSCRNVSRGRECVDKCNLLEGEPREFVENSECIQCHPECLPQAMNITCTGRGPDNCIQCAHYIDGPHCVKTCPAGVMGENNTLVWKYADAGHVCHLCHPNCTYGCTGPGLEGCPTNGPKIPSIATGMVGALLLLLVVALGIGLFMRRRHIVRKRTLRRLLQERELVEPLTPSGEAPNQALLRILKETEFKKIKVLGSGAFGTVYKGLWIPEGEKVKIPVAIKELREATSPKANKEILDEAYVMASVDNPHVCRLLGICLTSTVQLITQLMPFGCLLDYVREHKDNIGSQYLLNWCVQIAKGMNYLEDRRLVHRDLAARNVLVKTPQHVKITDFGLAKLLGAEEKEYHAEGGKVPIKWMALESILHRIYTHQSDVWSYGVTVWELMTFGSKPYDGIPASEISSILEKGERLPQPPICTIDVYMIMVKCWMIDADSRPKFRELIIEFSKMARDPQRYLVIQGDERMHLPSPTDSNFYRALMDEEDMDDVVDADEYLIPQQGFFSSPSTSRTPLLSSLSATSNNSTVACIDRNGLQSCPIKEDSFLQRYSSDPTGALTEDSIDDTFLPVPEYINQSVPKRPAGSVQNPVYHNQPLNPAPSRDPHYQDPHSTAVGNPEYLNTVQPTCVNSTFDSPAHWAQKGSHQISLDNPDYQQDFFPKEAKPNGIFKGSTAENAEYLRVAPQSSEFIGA
How it was run: as §1

[1] = system: Ba/F3 cells expressing EGFR mutations; assay: Cell proliferation assay, Ba/F3 cells expressing EGFR mutations (CellTiter-Glo, 72 hours); format: cell-based
How it was run: (§2)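 Ba/F3 cells (5000/well) and PC-9 cells (500/well, RPMI1640 with 10% FBS) were plated overnight and then dosed with a compound concentration series. Viable cells were read at day 0 (G0) and after treatment (G3). GI50 came from curve fits of G0-corrected proliferation relative to DMSO.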

EGFR[T790M/C797S/L858R] = target: T5, EGFR[T790M/C797S/L858R] (Homo sapiens, UniProt P00533, C797S/L858R/T790M); assay: Inhibition of EGFR[T790M/C797S/L858R] biochemical enzymatic activity (HTRF); conditions: EGFR[T790M/C797S/L858R], 1 mM ATP, 1 h at room temperature, read-out: IC50 @T790M- C797S - L858R
T5 construct: purchased Carna Bio
How it was run: as §1

EGFR L858R/T790M = target: T6, EGFR L858R/T790M (Homo sapiens, UniProt P00533, L858R/T790M); assay: Inhibition of EGFR L858R/T790M biochemical enzymatic activity (HTRF); conditions: EGFR L858R/T790M, 1 mM ATP, 1 h at room temperature, read-out: IC50 @L858R-T790M
T6 construct: purchased Carna Bio
T6 sequence (P00533 25-1210 T790M/L858R): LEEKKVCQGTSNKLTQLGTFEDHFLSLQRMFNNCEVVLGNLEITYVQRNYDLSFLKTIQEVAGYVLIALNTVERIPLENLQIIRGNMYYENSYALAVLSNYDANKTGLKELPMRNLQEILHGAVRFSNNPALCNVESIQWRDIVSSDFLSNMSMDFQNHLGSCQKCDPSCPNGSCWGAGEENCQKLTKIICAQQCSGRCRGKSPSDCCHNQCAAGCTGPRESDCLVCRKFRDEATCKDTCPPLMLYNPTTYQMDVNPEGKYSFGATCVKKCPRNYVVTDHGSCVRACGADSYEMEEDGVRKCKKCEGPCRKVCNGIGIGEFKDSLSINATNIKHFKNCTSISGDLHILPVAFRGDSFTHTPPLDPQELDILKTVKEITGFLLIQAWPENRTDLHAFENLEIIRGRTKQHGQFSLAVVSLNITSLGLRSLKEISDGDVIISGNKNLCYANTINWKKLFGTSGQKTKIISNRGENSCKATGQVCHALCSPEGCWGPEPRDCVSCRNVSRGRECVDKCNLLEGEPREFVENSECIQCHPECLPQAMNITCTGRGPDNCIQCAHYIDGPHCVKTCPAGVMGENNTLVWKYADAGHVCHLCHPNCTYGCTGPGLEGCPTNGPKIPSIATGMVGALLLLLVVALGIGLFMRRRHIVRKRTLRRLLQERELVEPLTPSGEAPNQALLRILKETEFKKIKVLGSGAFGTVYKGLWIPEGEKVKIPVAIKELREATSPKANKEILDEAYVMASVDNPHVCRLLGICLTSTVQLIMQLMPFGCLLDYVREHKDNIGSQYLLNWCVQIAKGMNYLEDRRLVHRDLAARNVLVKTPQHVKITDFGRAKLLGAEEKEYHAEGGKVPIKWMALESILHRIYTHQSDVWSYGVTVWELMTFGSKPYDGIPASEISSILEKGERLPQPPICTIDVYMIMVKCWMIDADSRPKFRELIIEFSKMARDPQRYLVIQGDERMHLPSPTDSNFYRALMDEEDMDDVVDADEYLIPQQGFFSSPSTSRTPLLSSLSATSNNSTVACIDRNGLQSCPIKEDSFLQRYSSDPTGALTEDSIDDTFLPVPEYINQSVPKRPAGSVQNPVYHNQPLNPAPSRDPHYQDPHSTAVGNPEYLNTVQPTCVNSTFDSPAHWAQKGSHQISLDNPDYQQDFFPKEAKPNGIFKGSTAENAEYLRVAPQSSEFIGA
How it was run: as §1

EGFR (d746-750 C797S) = target: T7, EGFR (d746-750 C797S) (Homo sapiens, UniProt P00533, C797S/DEL746-750); assay: Inhibition of EGFR (d746-750 C797S) biochemical enzymatic activity (HTRF); conditions: EGFR (d746-750 C797S), 1 mM ATP, 1 h at room temperature, read-out: IC50 @Del19-C797S
T7 construct: purchased signalchem
T7 sequence (P00533 with tags, fused parts or gaps DEL746-750/C797S limits assumed): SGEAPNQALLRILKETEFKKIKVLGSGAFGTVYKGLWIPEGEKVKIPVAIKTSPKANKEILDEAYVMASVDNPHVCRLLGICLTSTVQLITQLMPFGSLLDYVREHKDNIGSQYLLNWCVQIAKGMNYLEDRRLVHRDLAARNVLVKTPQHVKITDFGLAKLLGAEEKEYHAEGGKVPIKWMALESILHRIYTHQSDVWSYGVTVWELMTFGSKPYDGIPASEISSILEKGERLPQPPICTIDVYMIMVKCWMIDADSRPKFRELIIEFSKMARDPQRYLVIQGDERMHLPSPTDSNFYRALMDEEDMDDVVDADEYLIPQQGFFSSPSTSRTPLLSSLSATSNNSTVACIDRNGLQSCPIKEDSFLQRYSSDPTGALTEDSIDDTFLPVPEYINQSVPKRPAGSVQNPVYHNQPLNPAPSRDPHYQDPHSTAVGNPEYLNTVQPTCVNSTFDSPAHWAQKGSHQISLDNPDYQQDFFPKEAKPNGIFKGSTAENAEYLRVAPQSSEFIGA
How it was run: as §1

EGFR L858R = target: T8, EGFR L858R (Homo sapiens, UniProt P00533, L858R); assay: Inhibition of EGFR L858R biochemical enzymatic activity (HTRF); conditions: 1 mM ATP, 1 h at room temperature, read-out: IC50 @L858R
T8 construct: purchased Carna Bio
How it was run: as §1

PC-9 = assay: Cell proliferation assay, PC-9 cells (CellTiter-Glo, 72 hours); format: cell-based; conditions: PC9 cells, read-out: GI50 PC9
How it was run: as §2

[2] = target: T9, EGFR[T790M/C797S/d746-750] (Homo sapiens, UniProt P00533, C797S/DEL746-750/T790M); assay: Inhibition of EGFR[T790M/C797S/d746-750] biochemical enzymatic activity (HTRF); conditions: EGFR[T790M/C797S/d746-750], 1 mM ATP, 1 h at room temperature, read-out: IC50 @T790M - C797S - Del19
T9 construct: purchased Carna Bio
T9 sequence (P00533 with tags, fused parts or gaps DEL746-750/T790M/C797S limits assumed): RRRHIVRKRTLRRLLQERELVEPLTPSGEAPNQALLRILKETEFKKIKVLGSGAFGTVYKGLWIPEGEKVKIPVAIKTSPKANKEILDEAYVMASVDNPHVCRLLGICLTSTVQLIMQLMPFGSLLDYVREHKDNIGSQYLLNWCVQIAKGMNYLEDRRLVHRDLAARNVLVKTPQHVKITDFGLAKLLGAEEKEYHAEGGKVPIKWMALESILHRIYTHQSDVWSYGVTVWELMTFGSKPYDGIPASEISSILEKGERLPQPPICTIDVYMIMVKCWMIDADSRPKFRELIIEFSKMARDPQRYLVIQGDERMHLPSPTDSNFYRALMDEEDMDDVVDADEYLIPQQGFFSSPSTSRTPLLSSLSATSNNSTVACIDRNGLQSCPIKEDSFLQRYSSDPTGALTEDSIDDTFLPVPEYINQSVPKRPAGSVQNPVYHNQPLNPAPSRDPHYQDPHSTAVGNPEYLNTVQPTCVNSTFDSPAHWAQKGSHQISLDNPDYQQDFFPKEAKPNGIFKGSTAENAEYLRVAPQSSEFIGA
How it was run: as §1

[3] = BaF3 cells, EGFR DEL19 - C797S, read-out: GI50 DEL19 - C797S/BaF3
[4] = BaF3 cells, EGFR DEL19 - T790-C797S, read-out: GI50 DEL19 - T790-C797S/BaF3
[5] = BaF3 cells, EGFR L858R - C797S, read-out: GI50 L858R - C797S/BaF3
[6] = BaF3 cells, EGFR L858R - T790-C797S, read-out: GI50 L858R - T790-C797S/BaF3
[7] = BaF3 cells, EGFR L858R - T790M, read-out: GI50 L858R - T790M/BaF3
[8] = BaF3 cells, EGFR L858R, read-out: GI50 L858R/BaF3
[9] = EGFR DEL19 - T790M, read-out: GI50 DEL19 - T790M

Row | SMILES | IC50 (EGFR (C797S L858R)) | IC50 (EGFR Exon19Del/T790M) | IC50 (EGFR Exon19Del) | IC50 (EGFR wild type) | GI50 [1, 3] | GI50 [1, 4] | GI50 [1, 5] | GI50 [1, 6] | GI50 [1, 7] | GI50 [1, 8] | GI50 [1, 9] | IC50 (EGFR[T790M/C797S/L858R]) | IC50 (EGFR L858R/T790M) | IC50 (EGFR (d746-750 C797S)) | IC50 (EGFR L858R) | GI50 (PC-9) | IC50 [2]
1 | Cc1cc2cc(n1)-c1cnn(C)c1OCCN1CC3CCC(C3)(C1)n1c(nc3ccc(N4CCN(C(C)C)CC4)cc31)NC2=O (single isomer, unassigned) [Example B57A] | > 5000 nM | 1770 nM | > 5000 nM | > 5000 nM | 208 nM | 428 nM | 829 nM | 147 nM | 324 nM | 2000 nM | 612 nM | > 5000 nM | > 5000 nM | > 5000 nM | > 5000 nM | 941 nM | 792 nM
2 | Cc1cc2cc(n1)-c1cnn(C)c1OCCN1CC3CCC(C3)(C1)n1c(nc3ccc(N4CCC(N5CCN(C)CC5)CC4)cc31)NC2=O (single isomer, unassigned) [Example B59A] | > 5000 nM | 1140 nM | > 5000 nM | > 5000 nM | 227 nM | 474 nM | 751 nM | 144 nM | 299 nM | 1130 nM | 788 nM | > 5000 nM | > 5000 nM | > 5000 nM | > 5000 nM | 930 nM | 514 nM
3 | Cc1cc2cc(n1)-c1cnn(C)c1OCCN1CC3CCC(C3)(C1)n1c(nc3ccc(N4CCC(N5CCN(C)CC5)CC4)cc31)NC2=O (single isomer, unassigned) [Example B59B] | 9.5 nM | 10 nM | 12 nM | 360 nM | 11 nM | 12 nM | 27 nM | 3 nM | 11 nM | 36 nM | 13 nM | 4.4 nM | 7.7 nM | 5 nM | 27 nM | 32 nM | 6.1 nM
